In patent US20250129045A1, “SMALL MOLECULE PIM AND MTOR KINASE INHIBITOR AND METHODS OF USE THEREOF” (Arizona Board of Regents on Behalf of the University of …, priority 2022, published 2025):
Entries after “also recorded” stand apart in the source; their conditions may differ.

Legend:
Pim1 [1] = target: T1, Pim1 (Homo sapiens, UniProt P11309); experiment: Surface plasmon resonance (SPR) binding of VBT5445 to Pim1; conditions: 500 nM PIM447 vs DMSO
Experimental: (§1) FIGS. 7A-7I show inhibition of VBT5445 (VBT) on Pim1 and EDC3 binding and phosphorylation. FIG. 7A: In vitro co-precipitation (Co-PPT) assay was performed with recombinant EDC3 and biotinylated Pim1 using Streptavidin beads with increasing concentrations of the Pim inhibitor VBT5445 (VBT). FIG. 7B: Kinase assays were performed with recombinant EDC3 and Pim1 with increasing concentrations of VBT. FIG. 7C: Cell lysates from PC3-LN4 cells cultured with DMSO, 10 μM VBT, 3 μM AZD5363 (AKTi) and the combination for 6 hrs were subjected to western blotting (WB). […] WBs were performed using the indicated antibodies. FIG. 7E: PC3-LN4 cells were seeded into 48 well plate and incubated with either DMSO, VBT, AZD5363 or the combination, for 4.5 days. A real-time imaging system (IncuCyte™) was used to measure cell proliferation using a non-label cell monolayer confluence approach. FIG. 7F-7H: GFP image in PC3 LN4 GFP EDC3 expressing cells treated with PIMi: VBT (5 μM) and VBT (5 μM)+AZD5363 (3 μM) for 6 hrs.
A virtual screening effort was mounted to find chemicals that interact outside of ATP binding site of Pim screening over 100,000 compounds followed by testing the top 303 by Surface Plasmon Resonance (SPR). Synthesis of the most likely candidate was achieved by the Arizona Center for Drug Discovery at the University of Arizona. […]

Pim1 [2] = target: T1, Pim1; experiment: Kinase assay with purified Pim1 and EDC3 (EDC3 S161 phosphorylation); type: biochemical; conditions: concentration of 1 μM
Experimental: as §1
Computer screening followed by surface plasmon resonance (SPR) yielded a lead compound VBT-5445 that can interact with the Pim-1 protein kinase. Enhancer of mRNA Decapping 3 (EDC3) is a substrate of the Pim kinase that regulates the decapping of messenger RNA, and its activity is modulated by Pim mediated phosphorylation. […]

Pim1 and EDC3 binding = Pim1 and EDC3 binding (Homo sapiens, UniProt P11309); experiment: In vitro co-precipitation / co-immunoprecipitation of EDC3 with Pim1; conditions: VBT-5445 at concentrations higher than 1 μM
Experimental: as §1

PC3-LN4 cells [3] = experiment: P-body (PB) number in PC3-LN4 GFP-EDC3 cells; type: cell-based, human; conditions: 6 h
Experimental: as §1
To measure PB numbers, PC3-LN4 PCa cells containing a CRISPR/Cas total knock-out of EDC3 were stably transduced with GFP-EDC3. When localized in PBs, GFP spots could be quantified. PBs were quantified at the University of Colorado Center for Drug Discovery using an Opera Phenix Plus high content screening system (PerkinElmer) Perkin Elmer G3 robotic system after drug treatment. Assays were carried out in quadruplicate and the mean number of PBs per cell and cell area calculated. An example of this assay is shown using […] buffered saline (HBSS) to induce PB formation.
Immunofluorescence: Immunofluorescence (IF) staining was performed on PC3-LN4 cells stably expressing EDC3-GFP. 1×10^4 cells were seeded in each chamber of an 8 well chamber slide (Nunc Lab-Tek II Chamber Slide System, Life Technologies) and cultured for 48 h. After attaching to the chamber slides cells were treated with DMSO, VB-5445 ([…]), AZD5363 (3 μM), or the combination for 6 h. Cells were then fixed with 4% paraformaldehyde in PBS for 15 min and subsequently permeabilized with 0.2% Triton X-100 in PBS. Cells were stained with diluted DAPI (1:4000) in 1% nor-mal goat serum in PBS. Cells were mounted with Prolong Gold Antifade mounting medium (Molecular Probes).

PC3-LN4 cells [4] = experiment: Cell growth assay (IncuCyte) in PC3-LN4 prostate cancer cells; type: cell-based, human; conditions: for prostate cancer (PC3-LN4) growth, in combination with AKT/PI3K inhibitor: combination with AZD5363 or BKM120
Experimental: as §1
(§2) Cell growth assay: Tumor cells were seeded into 48 well plates (1000 cells/well) and treated with varied agents. The Incucyte real-time imaging system (Incucyte) was used to measure cell proliferation using a non-label cell monolayer confluence approach. The images were captured every 12 h. Graphs were generated using an integrated confluence metric as an alternative for cell numbers. At the end of the study cell growth was visualized by crystal violet staining.

[5] = test system: T-cell acute lymphoblastic leukemia cell line DU528; experiment: Cell viability (XTT) assay in T-ALL cells; type: cell-based; conditions: 72 h
Experimental: Cell viability (XTT) assay: T-ALL cells were seeded into 96 well plates at a density of 20,000 cells per well and treated with VBT-5445 for 72 h, using DMSO as control. Cell viability was measured using XTT cell proliferation assay (Trevigen Cat #4891-025-K) following the manufacturer's protocol. Briefly, XTT reagent was added to cell culture after the treatment and incubated for 4 h at 37° C. and 5% CO2. The absorbance of the colored formazan product was measured at 450 nm.

PC3-LN4 cells [6] = experiment: Western blotting of PC3-LN4 cell lysates; type: cell-based, human
Experimental: as §1, with “FIG.” for “FIGS. 7A-7I show inhibition of VBT5445 (VBT) on Pim1 and EDC3 binding and phosphorylation. FIG.”
Extracts were subjected to Western blotting with the indicated antibodies.
(§3) Immunoblotting: Western blots were performed as described previously. Briefly, protein lysates (30 μg) were subjected to SDS-PAGE and transferred to nitrocellulose membranes. After blocking with 5% milk in TBST buffer for 30 min at room temperature, the membranes were incubated overnight at 4° C. with the Indicated primary antibody in 3% BSA in TBST. Specific proteins were detected with the corresponding HRP conjugated secondary antibody using enhanced chemiluminescence (GE Lifesciences, Piscataway, NJ).

[7] = Tolerability by gavage in mice; type: in vivo; conditions: 30 mg/kg by gavage in combination with AZD5363 40 mg/kg
Description: Maximum Tolerated Dose and Side Effect Profile. […] To obtain the maximum tolerated dose (MTD), the dose will be increased by 50% over the previous one at each ensuing treatment consisting of 3 mice given daily for 5 days. Mice will be observed for fur ruffling and behavior changes. Blood will be drawn, and the WBC count and blood chemistry will be determined to evaluate bone marrow, liver, and kidney toxicity. Together with pharmacokinetic profiling, this analysis will help determine the best dose and frequency of administration for this molecule.

[8] = test system: PANC1 pancreatic cancer cells; experiment: Growth inhibition of PANC1 pancreatic cancer cells; type: cell-based
Experimental: as §2
(§4) Because of ease of growth, PANC1 pancreatic cancer cells were used to test the activity of derivatives of VBT-5445 (FIG. 14). […] Using a doxycycline inducible Pim kinase vector in these tumor cells, this inhibition of phosphorylation was proportional to the level of Pim in these cells (FIG. 9). […] Inhibition of mTORC1 is known to stimulate the feedback activation of mTORC2 leading to AKT phosphorylation. […] The effect of these compounds on mTORC1 and 2 was still evident in PC3-LN4 cells that contained a knockout (KO) using CRISPR/CAS9 of either TSC2 or DEPDC5 (FIG. 12, lanes 4-9). TSC2 KO activated the Rheb GTPase while DEPDC5 KO activated the RAG GTPase both of which stimulate mTORC1 activity. Thus, GRG compounds were capable of inhibiting mTORC1 activity even when this kinase was highly activated.

mTORC = experiment: Phosphorylation of mTORC substrates in PANC1 cells (Western blot); type: cell-based; conditions: overnight incubation, FIG. 19
Experimental: as §3, §4

Acetyl CoA carboxylase = Acetyl CoA carboxylase phosphorylation in LNCaP cells (Western blot); type: cell-based; conditions: LNCaP prostate cancer cell line
Experimental: LNCaP cells were treated in a 6 well plate with GRG-1-35 for the indicated times. Cells were scrapped and protein extracts subjected to SDS-PAGE and Western blotted with the antibodies shown.

T1 sequence (P11309 whole entry): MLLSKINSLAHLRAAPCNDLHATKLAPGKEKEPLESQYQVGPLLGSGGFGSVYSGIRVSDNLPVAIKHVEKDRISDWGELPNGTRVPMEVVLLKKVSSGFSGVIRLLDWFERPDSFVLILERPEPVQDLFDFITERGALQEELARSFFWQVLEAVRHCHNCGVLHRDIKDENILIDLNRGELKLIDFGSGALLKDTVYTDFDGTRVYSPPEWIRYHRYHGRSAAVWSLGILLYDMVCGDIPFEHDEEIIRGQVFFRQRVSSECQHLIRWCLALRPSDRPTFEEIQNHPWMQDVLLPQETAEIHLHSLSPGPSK
Sequence of Pim1 and EDC3 binding (P11309 whole entry): as above

Compound	increase of binding to Pim1 when PIM447 was added and bound to the ATP site (Pim1 [1]) [fold]	inhibition of EDC3 serine 161 phosphorylation by Pim1 (Pim1 [2])	co-immunoprecipitation of EDC3 with Pim (Pim1 and EDC3 binding)	number of P-bodies, with AKT inhibitor AZD5363 added (PC3-LN4 cells [3]; combination with AZD5363 (3 μM))	number of P-bodies (PC3-LN4 cells [3]; compound alone)	prostate cancer (PC3-LN4) growth, in combination with AKT/PI3K inhibitor (PC3-LN4 cells [4])	prostate cancer (PC3-LN4) growth, in combination with AKT/PI3K inhibitor (PC3-LN4 cells [4]; listed as VBT)	growth in culture of PC3-LN4 cells (PC3-LN4 cells [4]; compound alone)	growth of T-acute lymphoblastic leukemia cells [5]	ITGB1 protein level, combination with AZD5363 (AKTi) (PC3-LN4 cells [6])	cellular level of Pim kinases (PC3-LN4 cells [6])	cellular level of c-Myc protein (PC3-LN4 cells [6])	mTORC1 activity: phosphorylation of the S6 protein (PC3-LN4 cells [6])	weight loss or behavior changes [7]	growth inhibitory activity against PANC1 pancreatic cancer cells [8]	block of phosphorylation of mTORC substrates (AKT, 4E-BP1, S6) (mTORC)	phosphorylation of acetyl CoA carboxylase (Acetyl CoA carboxylase)
O=c1c(CNCc2cccnc2)cc2ccc(Cl)cc2n1CCOc1ccccc1 [VBT5445]	3	inhibited EDC3 phosphorylation	blocked the ability of Pim1 to coimmunoprecipitate with EDC3	further increased these numbers; also recorded: further increase P-body formation	increased PB numbers; also recorded: induces increased numbers of P-bodies	more active in inhibiting cancer growth	markedly inhibits the growth	markedly inhibits the growth	inhibited the growth	reduced	decreases the level of all Pim kinases	decrease	blocked mTORC1 activity	without any weight loss or behavior changes	–	–	–
O=c1c(CNCc2cc(Cl)ccn2)cc2ccc(Cl)cc2n1CCOc1ccccc1 [GRG-1-35]	–	–	–	–	–	–	–	–	–	–	–	–	–	–	most active	block the phosphorylation of mTORC substrates	Induction; also recorded: increased the phosphorylation of acetyl CoA carboxylase
